Experimental data: ChEMBL document CHEMBL1135079, “CCR5 antagonists: bicyclic isoxazolidines as conformationally constrained N-1-substituted pyrrolidines” (Bioorg Med Chem Lett, 2002)

Legend:
[1] = target: C-C chemokine receptor type 5 (Homo sapiens, UniProt P51681); experiment: Ability to displace [125I]-labeled MIP-1alpha from the C-C chemokine receptor type 5 expressed on CHO cell membranes
[2] = test system: Human immunodeficiency virus 1; experiment: Antiviral activity against BAL strain of HIV using HeLa cell anti-infectivity assay; type: functional; conditions: Human immunodeficiency virus 1, HeLa

Sequence of C-C chemokine receptor type 5 (P51681 whole entry): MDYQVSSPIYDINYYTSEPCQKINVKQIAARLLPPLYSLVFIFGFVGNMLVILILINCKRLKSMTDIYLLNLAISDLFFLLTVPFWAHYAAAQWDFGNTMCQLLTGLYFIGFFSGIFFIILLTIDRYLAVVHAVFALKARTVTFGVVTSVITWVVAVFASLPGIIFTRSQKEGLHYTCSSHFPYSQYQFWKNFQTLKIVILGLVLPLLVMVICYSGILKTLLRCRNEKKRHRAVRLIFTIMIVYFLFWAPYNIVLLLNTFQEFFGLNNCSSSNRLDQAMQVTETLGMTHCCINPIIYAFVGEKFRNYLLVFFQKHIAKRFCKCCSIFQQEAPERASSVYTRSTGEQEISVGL

Compound	IC50 [1] [nM]	IC90 [2] [nM]
c1ccc(C2CCN(C[C@@H]3[C@@H](c4ccccc4)CN4O[C@H](c5ccccc5)C[C@@H]34)CC2)cc1	30	
c1ccc(C2CCN(C[C@H]3CN4O[C@H](c5ccccc5)C[C@H]4[C@@H]3c3ccccc3)CC2)cc1	27	
C=CCN(C(=O)OCc1ccc([N+](=O)[O-])cc1)C1CCN(C[C@H]2CN(C(=O)C3CCCCC3)C[C@@H]2c2ccccc2)CC1		4
c1ccc(CCCC2CCN(C[C@@H]3[C@@H](c4ccccc4)CN4O[C@H](c5ccccc5)C[C@@H]34)CC2)cc1	11	
c1ccc(C2CCN(C[C@H]3CN4OC5(CCCCC5)C[C@H]4[C@@H]3c3ccccc3)CC2)cc1	43	
CCN(C(=O)OCc1ccccc1)C1CCN(C[C@@H]2[C@@H](c3ccccc3)CN3OC4(CCCCC4)C[C@@H]23)CC1	86	
CCN(C(=O)OCc1ccccc1)C1CCN(C[C@H]2CN3O[C@H](c4ccccc4)C[C@H]3[C@@H]2c2ccccc2)CC1	~27	
C=CCN(C(=O)OCc1ccc([N+](=O)[O-])cc1)C1CCN(C[C@@H]2[C@@H](c3ccccc3)CN3OC4(CCCCC4)C[C@@H]23)CC1	14	
CCN(C(=O)OCc1ccccc1)C1CCN(C[C@@H]2[C@@H](c3ccccc3)CN3O[C@H](c4ccccc4)C[C@@H]23)CC1	46	
c1ccc(C2CCN(C[C@@H]3[C@@H](c4ccccc4)CN4OC5(CCCCC5)C[C@@H]34)CC2)cc1	33	
c1ccc(CCCC2CCN(C[C@H]3CN4OC5(CCCCC5)C[C@H]4[C@@H]3c3ccccc3)CC2)cc1	8	> 300

The remaining molecules from weak to strong by IC50 [1], led by results:

IC50 [1] [nM]	IC90 [2] [nM]	Compound
6	> 300	C=CCN(C(=O)OCc1ccc([N+](=O)[O-])cc1)C1CCN(C[C@@H]2[C@@H](c3ccccc3)CN3O[C@H](c4ccccc4)C[C@@H]23)CC1
5	> 300	CCN(C(=O)OCc1ccccc1)C1CCN(C[C@H]2CN3OC4(CCCCC4)C[C@H]3[C@@H]2c2ccccc2)CC1
5	> 300	c1ccc(CCCC2CCN(C[C@H]3CN4O[C@H](c5ccccc5)C[C@H]4[C@@H]3c3ccccc3)CC2)cc1
2.5	300	C=CCN(C(=O)OCc1ccc([N+](=O)[O-])cc1)C1CCN(C[C@H]2CN3O[C@H](c4ccccc4)C[C@H]3[C@@H]2c2ccccc2)CC1
0.13	33	C=CCN(C(=O)OCc1ccc([N+](=O)[O-])cc1)C1CCN(C[C@H]2CN3OC4(CCCCC4)C[C@H]3[C@@H]2c2ccccc2)CC1
